Assay results published in ChEMBL document CHEMBL1201862, “PubChem BioAssay data set” (2004).
“And” between values parts separate entries of the source, which are not always exact repeats. Identical values can stand only once.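 Results reflect a 48-hour exposure of cells in 96-well plates to compound at five concentrations. Here, GI50 denotes the concentration required for 50% inhibition of growth.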 The source made the active and inactive calls. No stated cut-off is given here; in the data, active = GI50 up to about 1.1 µM and inactive = higher.

How the values were obtained:
Test in all cases: growth of human tumour cells (NCI), 48 h
COLO 205 = system: COLO 205
NCI-H226 = system: NCI-H226
OVCAR-4 = system: OVCAR-4
DLD-1 = system: DLD-1
MCF7 = system: MCF7
CCRF-CEM = system: CCRF-CEM
UACC-62 = system: UACC-62
KM12 = system: KM12
U-251 = system: U-251
SK-OV-3 = system: SK-OV-3
HCC 2998 = system: HCC 2998
SF-295 = system: SF-295
HCT-15 = system: HCT-15
A549 = system: A549
SF-268 = system: SF-268
XF498 = system: XF498
LOX IMVI = system: LOX IMVI
UACC-257 = system: UACC-257
A498 = system: A498
SNB-75 = system: SNB-75
RXF 393 = system: RXF 393
NCI-H522 = system: NCI-H522
HT-29 = system: HT-29
Malme-3M = system: Malme-3M
IGROV-1 = system: IGROV-1
NCI-H460 = system: NCI-H460
HCT-116 = system: HCT-116
SW-620 = system: SW-620
K562 = system: K562
SK-MEL-2 = system: SK-MEL-2
MOLT-4 = system: MOLT-4
OVCAR-5 = system: OVCAR-5
SK-MEL-28 = system: SK-MEL-28
DMS-273 = system: DMS-273
HL-60 = system: HL-60
NCI/ADR-RES = system: NCI/ADR-RES
KM-20L2 = system: KM-20L2
UO-31 = system: UO-31
SN12C = system: SN12C
OVCAR-3 = system: OVCAR-3
SF-539 = system: SF-539
OVCAR-8 = system: OVCAR-8
CAKI-1 = system: CAKI-1
HOP-92 = system: HOP-92
SNB-78 = system: SNB-78
M19-MEL = system: M19-MEL
NCI-H23 = system: NCI-H23
SK-MEL-5 = system: SK-MEL-5
SNB-19 = system: SNB-19
HOP-18 = system: HOP-18
MDA-MB-231 = system: MDA-MB-231
MDA-MB-435 = system: MDA-MB-435
TK-10 = system: TK-10
DMS-114 = system: DMS-114
T47D = system: T47D
HOP-62 = system: HOP-62
ACHN = system: ACHN
M14 = system: M14
MDA-N = system: MDA-N
786-0 = system: 786-0
DU-145 = system: DU-145
PC-3 = system: PC-3
EKVX = system: EKVX
RPMI-8226 = system: RPMI-8226
Hs-578T = system: Hs-578T
LXFL 529 = system: LXFL 529
SR = system: SR
BT-549 = system: BT-549

`O=P(NCCCO)(OCc1ccccc1)N(CCCl)CCCl` (configuration not stated) was tested, and the GI50 (COLO 205) was > 100 µM (inactive), the GI50 (NCI-H226) was > 100 µM (inactive) and the GI50 (OVCAR-4) was > 100 µM (inactive). The GI50 (DLD-1) was > 31.6 µM (inactive), the GI50 (MCF7) was > 100 µM (inactive) and the GI50 (CCRF-CEM) was > 100 µM (inactive). The GI50 (UACC-62) was > 100 µM (inactive), the GI50 (KM12) was > 100 µM (inactive) and the GI50 (U-251) was > 100 µM (inactive). The GI50 (SK-OV-3) was > 100 µM (inactive), the GI50 (HCC 2998) was > 100 µM (inactive) and the GI50 (SF-295) was > 100 µM (inactive). For the same compound, the GI50 (HCT-15) was over 100 µM, the GI50 (A549) was > 100 µM (inactive) and the GI50 (SF-268) was > 100 µM (inactive). The GI50 (XF498) was > 100 µM (inactive), the GI50 (LOX IMVI) was > 100 µM (inactive) and the GI50 (UACC-257) was > 100 µM (inactive). The GI50 (A498) was > 100 µM (inactive), the GI50 (SNB-75) was > 100 µM (inactive) and the GI50 (RXF 393) was > 100 µM (inactive). For the same compound, the GI50 (NCI-H522) was > 100 µM (inactive), the GI50 (HT-29) was > 100 µM (inactive) and the GI50 (Malme-3M) was > 100 µM (inactive). For the same compound, the GI50 (IGROV-1) was > 74.5 µM (inactive), the GI50 (NCI-H460) was > 100 µM (inactive) and the GI50 (HCT-116) was > 100 µM (inactive). For the same compound, the GI50 (SW-620) was > 100 µM (inactive), the GI50 (K562) was > 100 µM (inactive) and the GI50 (SK-MEL-2) was > 100 µM (inactive). The GI50 (MOLT-4) was > 100 µM (inactive), the GI50 (OVCAR-5) was > 100 µM (inactive) and the GI50 (SK-MEL-28) was > 100 µM (inactive). The GI50 (DMS-273) was > 100 µM (inactive), the GI50 (HL-60) was > 100 µM (inactive) and the GI50 (NCI/ADR-RES) was > 100 µM (inactive). The GI50 (KM-20L2) was > 100 µM (inactive), the GI50 (UO-31) was > 100 µM (inactive) and the GI50 (SN12C) was > 100 µM (inactive). The GI50 (OVCAR-3) was > 100 µM (inactive), the GI50 (SF-539) was > 100 µM (inactive) and the GI50 (OVCAR-8) was > 100 µM (inactive). The GI50 (CAKI-1) was > 100 µM (inactive), the GI50 (HOP-92) was > 100 µM (inactive) and the GI50 (SNB-78) was > 100 µM (inactive). For the same compound, the GI50 (M19-MEL) was > 100 µM (inactive), the GI50 (NCI-H23) was > 100 µM (inactive) and the GI50 (SK-MEL-5) was > 100 µM (inactive). For the same compound, the GI50 (SNB-19) was > 100 µM (inactive) and the GI50 (HOP-18) was > 39.5 µM (inactive).
In the case of `Nc1ncnc2c1ncn2C1OC(CO)C(O)C1O` (configuration not stated), the GI50 (DLD-1) is reported as > 373 µM (inactive), the GI50 (MDA-MB-231) is reported as > 100 µM (inactive) and the GI50 (CCRF-CEM) is reported as 36.7 µM (inactive) and 34.3 µM (inactive). The GI50 (HCC 2998) was 34.9 µM (inactive) and 43.4 µM (inactive), the GI50 (MDA-MB-435) was > 100 µM (inactive) and the GI50 (A549) was 132 µM (inactive). For the same compound, the GI50 (SF-268) was 232 µM (inactive), the GI50 (XF498) was > 450 µM (inactive) and the GI50 (LOX IMVI) was 84.3 µM (inactive) and 44.2 µM (inactive). The GI50 (SNB-75) was 117 µM (inactive), the GI50 (RXF 393) was 104 µM (inactive) and the GI50 (Malme-3M) was 274 µM (inactive). For the same compound, the GI50 (NCI-H460) was 22.3 µM (inactive), the GI50 (HCT-116) was 106 µM (inactive) and 58.2 µM (inactive) and the GI50 (SW-620) was 153 µM (inactive). For the same compound, the GI50 (SK-MEL-2) was 97.1 µM (inactive), the GI50 (TK-10) was > 100 µM (inactive) and the GI50 (DMS-114) was 68.1 µM (inactive). For the same compound, the GI50 (DMS-273) was 103 µM (inactive), the GI50 (NCI/ADR-RES) was 117 µM (inactive) and the GI50 (KM-20L2) was 234 µM (inactive). For the same compound, the GI50 (T47D) was 77.3 µM (inactive), the GI50 (HOP-62) was 61.9 µM (inactive) and 70.5 µM (inactive) and the GI50 (ACHN) was 40.6 µM (inactive). The GI50 (SN12C) was 136 µM (inactive), the GI50 (SF-539) was 179 µM (inactive) and the GI50 (M14) was > 100 µM (inactive). For the same compound, the GI50 (MDA-N) was > 100 µM (inactive), the GI50 (786-0) was 43.3 µM (inactive) and the GI50 (SNB-78) was > 450 µM (inactive). For the same compound, the GI50 (M19-MEL) was 333 µM (inactive), the GI50 (DU-145) was 22.9 µM (inactive) and the GI50 (PC-3) was 31 µM (inactive). The GI50 (HOP-18) was 107 µM (inactive).
For `CCNCC(=O)O[C@]1(CC)C(=O)OCc2c1cc1n(c2=O)Cc2cc3ccccc3nc2-1`, the GI50 (COLO 205) was 1.69 µM (inactive), the GI50 (NCI-H226) was 0.115 µM (active) and the GI50 (OVCAR-4) was 2.25 µM (inactive). The GI50 (DLD-1) was 2.37 µM (inactive), the GI50 (MDA-MB-231) was 6.71 µM (inactive) and the GI50 (EKVX) was 2.44 µM (inactive). The GI50 (MCF7) was 0.0693 µM (active), the GI50 (CCRF-CEM) was 0.0142 µM (active) and the GI50 (UACC-62) was 0.0468 µM (active). For the same compound, the GI50 (KM12) was 0.778 µM (active), the GI50 (U-251) was 0.0614 µM (active) and the GI50 (SK-OV-3) was 0.258 µM (active). For the same compound, the GI50 (HCC 2998) was 1.04 µM (active), the GI50 (SF-295) was 0.0586 µM (active) and the GI50 (HCT-15) was 1.85 µM. For the same compound, the GI50 (MDA-MB-435) was 1.36 µM (inactive), the GI50 (A549) was 0.157 µM (active) and the GI50 (SF-268) was 0.0767 µM (active). For the same compound, the GI50 (XF498) was 0.364 µM (active), the GI50 (LOX IMVI) was 0.0893 µM (active) and the GI50 (RPMI-8226) was 0.237 µM (active). For the same compound, the GI50 (UACC-257) was 0.585 µM (active), the GI50 (A498) was 0.661 µM (active) and the GI50 (SNB-75) was 0.284 µM (active). For the same compound, the GI50 (RXF 393) was 0.264 µM (active), the GI50 (NCI-H522) was 0.221 µM (active) and the GI50 (HT-29) was 0.889 µM (active). For the same compound, the GI50 (Malme-3M) was 1.49 µM (inactive), the GI50 (IGROV-1) was 2.2 µM (inactive) and the GI50 (NCI-H460) was 0.0277 µM (active). The GI50 (HCT-116) was 0.342 µM (active), the GI50 (Hs-578T) was 25.8 µM (inactive) and the GI50 (SW-620) was 0.434 µM (active). For the same compound, the GI50 (K562) was 0.598 µM (active), the GI50 (SK-MEL-2) was 2.77 µM (inactive) and the GI50 (MOLT-4) was 0.0195 µM (active). For the same compound, the GI50 (OVCAR-5) was 0.811 µM (active), the GI50 (LXFL 529) was 4.73 µM (inactive) and the GI50 (TK-10) was 7.4 µM (inactive). For the same compound, the GI50 (SK-MEL-28) was 3.56 µM (inactive), the GI50 (DMS-114) was 0.0857 µM (active) and the GI50 (DMS-273) was 0.0119 µM (active). For the same compound, the GI50 (HL-60) was 0.056 µM (active), the GI50 (NCI/ADR-RES) was 0.114 µM (active) and the GI50 (KM-20L2) was 1.14 µM (inactive). The GI50 (UO-31) was 0.158 µM (active), the GI50 (T47D) was 0.203 µM (active) and the GI50 (HOP-62) was 27.5 nM (active). For the same compound, the GI50 (ACHN) was 0.0441 µM (active), the GI50 (SR) was < 0.0118 µM (active) and the GI50 (SN12C) was 0.0619 µM (active). For the same compound, the GI50 (OVCAR-3) was 2.07 µM (inactive), the GI50 (SF-539) was 0.0466 µM (active) and the GI50 (OVCAR-8) was 0.27 µM (active). The GI50 (M14) was 0.163 µM (active), the GI50 (MDA-N) was 1.36 µM (inactive) and the GI50 (786-0) was 0.0455 µM (active). For the same compound, the GI50 (CAKI-1) was 0.0559 µM (active), the GI50 (HOP-92) was 1.16 µM (inactive) and the GI50 (SNB-78) was 5.11 µM (inactive). The GI50 (BT-549) was 1.05 µM (active), the GI50 (M19-MEL) was 0.394 µM (active) and the GI50 (NCI-H23) was 0.0849 µM (active). For the same compound, the GI50 (DU-145) was 0.0465 µM (active), the GI50 (SK-MEL-5) was 0.267 µM (active) and the GI50 (SNB-19) was 0.108 µM (active). For the same compound, the GI50 (PC-3) was 0.741 µM (active) and the GI50 (HOP-18) was 0.44 µM (active).
